From ChEMBL document CHEMBL1201862, “PubChem BioAssay data set” (2004)
Activity calls are given as the source filed them.

Legend:
[1] = non-specific 3'UTR reporter inhibition in Clone20-Shn3RL – cell-based, Renilla luciferase, cherry-picked, counter-screen for Shn3 inhibitor project, dose response (AID 624133); assay type: functional
[2] = reduction of Shn3 3'UTR-driven luciferase in osteoblasts – cell-based, Clone20 osteoblasts, firefly luciferase, cherry-picked, dose response (AID 624132); assay type: functional;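 note: firefly luciferase luminescence from reporter carrying the Shn3 3'UTR in osteoblasts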
[3] = target: Ras and Rab interactor 1/Tyrosine-protein kinase ABL1 (Homo sapiens, UniProt P00519+Q13671); assay type: functional;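 note: biochemical TR-FRET dose-response test measuring inhibition of binding between Rin1 and Abl proteins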
Chain of Ras and Rab interactor 1/Tyrosine-protein kinase ABL1 (P00519 whole entry): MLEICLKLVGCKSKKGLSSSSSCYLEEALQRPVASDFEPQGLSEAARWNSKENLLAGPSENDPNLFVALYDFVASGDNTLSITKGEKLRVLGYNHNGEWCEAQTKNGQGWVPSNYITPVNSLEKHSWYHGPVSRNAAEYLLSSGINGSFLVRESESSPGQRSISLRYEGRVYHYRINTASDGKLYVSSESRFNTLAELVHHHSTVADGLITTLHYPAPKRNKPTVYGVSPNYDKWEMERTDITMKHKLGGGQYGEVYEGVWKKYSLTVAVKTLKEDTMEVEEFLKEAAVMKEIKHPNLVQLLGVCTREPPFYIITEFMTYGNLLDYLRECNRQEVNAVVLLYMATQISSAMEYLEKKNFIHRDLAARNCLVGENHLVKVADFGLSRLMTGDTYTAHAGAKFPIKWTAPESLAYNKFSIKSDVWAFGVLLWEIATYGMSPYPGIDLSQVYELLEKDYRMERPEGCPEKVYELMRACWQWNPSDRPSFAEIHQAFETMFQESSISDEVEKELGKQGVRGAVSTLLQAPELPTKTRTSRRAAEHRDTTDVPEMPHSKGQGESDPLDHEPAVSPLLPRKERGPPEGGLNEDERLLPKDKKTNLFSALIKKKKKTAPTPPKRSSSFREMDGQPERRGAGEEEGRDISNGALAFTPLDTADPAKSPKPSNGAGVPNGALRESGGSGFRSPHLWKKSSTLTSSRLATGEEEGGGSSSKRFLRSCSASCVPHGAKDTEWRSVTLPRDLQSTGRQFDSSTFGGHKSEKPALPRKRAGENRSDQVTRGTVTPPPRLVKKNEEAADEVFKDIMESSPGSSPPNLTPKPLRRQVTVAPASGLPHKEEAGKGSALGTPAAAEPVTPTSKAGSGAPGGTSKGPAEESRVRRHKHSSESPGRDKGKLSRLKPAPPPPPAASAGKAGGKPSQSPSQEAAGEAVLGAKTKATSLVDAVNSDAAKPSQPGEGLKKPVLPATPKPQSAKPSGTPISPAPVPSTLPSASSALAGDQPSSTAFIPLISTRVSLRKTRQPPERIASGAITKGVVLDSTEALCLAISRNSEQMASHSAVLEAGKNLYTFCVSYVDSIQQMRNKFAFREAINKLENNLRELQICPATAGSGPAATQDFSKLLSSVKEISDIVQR
Chain of Ras and Rab interactor 1/Tyrosine-protein kinase ABL1 (Q13671 whole entry): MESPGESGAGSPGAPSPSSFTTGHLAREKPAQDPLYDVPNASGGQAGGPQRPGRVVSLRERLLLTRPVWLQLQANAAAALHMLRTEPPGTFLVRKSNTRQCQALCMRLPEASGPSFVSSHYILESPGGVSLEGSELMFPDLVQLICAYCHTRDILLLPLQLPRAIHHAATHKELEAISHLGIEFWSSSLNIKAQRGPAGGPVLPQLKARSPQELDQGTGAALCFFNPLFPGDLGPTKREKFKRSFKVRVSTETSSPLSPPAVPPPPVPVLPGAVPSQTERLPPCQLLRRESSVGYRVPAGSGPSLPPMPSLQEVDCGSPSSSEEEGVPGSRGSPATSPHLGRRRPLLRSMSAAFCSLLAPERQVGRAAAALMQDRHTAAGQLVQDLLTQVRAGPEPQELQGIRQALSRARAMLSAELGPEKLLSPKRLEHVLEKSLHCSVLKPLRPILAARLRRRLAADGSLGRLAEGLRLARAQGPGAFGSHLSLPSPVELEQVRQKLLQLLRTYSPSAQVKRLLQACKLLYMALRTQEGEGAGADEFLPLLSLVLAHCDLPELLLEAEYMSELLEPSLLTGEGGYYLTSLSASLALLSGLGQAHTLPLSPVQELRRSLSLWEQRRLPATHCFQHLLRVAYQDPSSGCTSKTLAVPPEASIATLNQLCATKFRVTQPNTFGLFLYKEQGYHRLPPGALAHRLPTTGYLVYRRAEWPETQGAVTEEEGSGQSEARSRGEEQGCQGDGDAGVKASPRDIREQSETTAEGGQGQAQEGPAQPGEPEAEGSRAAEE

[4] = target: Nonstructural protein 1 (Influenza A virus, UniProt Q194T2); assay type: functional, Influenza A virus (A/California/07/2009(H1N1))
Chain of Nonstructural protein 1 (Q194T2 whole entry): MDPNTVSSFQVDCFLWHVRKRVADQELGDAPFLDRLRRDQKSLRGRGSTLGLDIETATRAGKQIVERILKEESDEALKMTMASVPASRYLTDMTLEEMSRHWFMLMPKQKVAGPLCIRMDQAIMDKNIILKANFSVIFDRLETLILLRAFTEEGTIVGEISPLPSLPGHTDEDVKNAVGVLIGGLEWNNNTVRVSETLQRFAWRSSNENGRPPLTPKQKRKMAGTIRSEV

[5] = target: Cytochrome P450 2C19 (Homo sapiens, UniProt P33261); assay: Cytochrome panel assay with activity outcomes. Panel member name: p450-cyp2c19 Compounds with AC50 equal or less than 10 uM are considered active; assay type: functional; conditions: read-out: AC50
Chain of Cytochrome P450 2C19 (P33261 whole entry): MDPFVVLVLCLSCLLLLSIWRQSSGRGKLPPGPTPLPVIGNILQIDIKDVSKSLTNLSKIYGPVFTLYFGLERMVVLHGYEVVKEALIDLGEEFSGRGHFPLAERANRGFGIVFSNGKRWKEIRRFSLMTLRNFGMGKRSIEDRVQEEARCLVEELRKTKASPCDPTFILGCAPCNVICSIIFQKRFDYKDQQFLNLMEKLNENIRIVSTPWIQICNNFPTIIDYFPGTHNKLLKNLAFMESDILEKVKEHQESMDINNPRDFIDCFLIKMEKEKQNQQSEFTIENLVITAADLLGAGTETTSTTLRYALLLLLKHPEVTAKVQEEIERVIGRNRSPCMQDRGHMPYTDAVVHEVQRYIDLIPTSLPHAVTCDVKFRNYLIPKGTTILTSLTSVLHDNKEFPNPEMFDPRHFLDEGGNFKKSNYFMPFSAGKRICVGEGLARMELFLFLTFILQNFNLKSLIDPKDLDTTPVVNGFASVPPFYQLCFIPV

[6] = target: Cytochrome P450 2D6 (Homo sapiens, UniProt P10635);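 note: CYP2D6 member of a cytochrome P450 panel assay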
Chain of Cytochrome P450 2D6 (P10635 whole entry): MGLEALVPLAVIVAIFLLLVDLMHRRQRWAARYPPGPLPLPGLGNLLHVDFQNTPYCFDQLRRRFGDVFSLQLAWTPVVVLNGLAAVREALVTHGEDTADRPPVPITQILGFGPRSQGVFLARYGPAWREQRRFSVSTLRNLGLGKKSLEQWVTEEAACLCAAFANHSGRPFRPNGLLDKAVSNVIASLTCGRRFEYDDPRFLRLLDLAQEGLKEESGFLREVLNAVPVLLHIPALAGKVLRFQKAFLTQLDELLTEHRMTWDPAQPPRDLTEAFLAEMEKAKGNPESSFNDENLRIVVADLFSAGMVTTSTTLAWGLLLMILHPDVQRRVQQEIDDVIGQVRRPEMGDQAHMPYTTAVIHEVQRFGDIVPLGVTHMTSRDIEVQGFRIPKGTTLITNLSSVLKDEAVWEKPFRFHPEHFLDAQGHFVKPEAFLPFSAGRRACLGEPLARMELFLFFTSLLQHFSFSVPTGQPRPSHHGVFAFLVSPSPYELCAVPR

[7] = target: Cytochrome P450 2C9 (Homo sapiens, UniProt P11712)
Chain of Cytochrome P450 2C9 (P11712 whole entry): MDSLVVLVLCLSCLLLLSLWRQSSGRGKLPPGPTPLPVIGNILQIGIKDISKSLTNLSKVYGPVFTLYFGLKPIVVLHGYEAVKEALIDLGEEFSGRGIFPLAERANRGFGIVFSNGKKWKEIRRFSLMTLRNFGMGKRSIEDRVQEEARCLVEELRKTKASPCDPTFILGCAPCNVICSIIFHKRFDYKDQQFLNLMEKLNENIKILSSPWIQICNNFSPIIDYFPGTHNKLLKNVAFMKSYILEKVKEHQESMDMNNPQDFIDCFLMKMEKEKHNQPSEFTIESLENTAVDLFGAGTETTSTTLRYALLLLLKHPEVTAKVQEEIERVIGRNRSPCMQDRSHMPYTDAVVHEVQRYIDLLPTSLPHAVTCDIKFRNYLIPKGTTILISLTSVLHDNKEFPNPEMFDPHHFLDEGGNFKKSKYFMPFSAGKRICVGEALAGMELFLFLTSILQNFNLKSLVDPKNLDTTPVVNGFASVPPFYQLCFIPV

[8] = Dd2 malaria parasite growth inhibition potency – SYBR Green, dry powder samples, dose response (AID 1159566); assay type: functional, cell-based;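 note: potency for growth inhibition with lower SYBR green DNA signal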
[9] = growth inhibition of yeast DHODH-expressing 3D7 parasites – SYBR Green, dry powder samples, dose response (AID 1159570); assay type: functional, cell-based;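 note: parasite growth measured after 72 hours of compound exposure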
[10] = P. falciparum Dd2 growth inhibitors, dose response, SYBR Green, cherry-picked samples (AID 1159567); assay type: functional, cell-based
[11] = growth inhibition of PfATP4-mutant resistant parasites – NITD609-resistant line, SYBR Green, dry powder, dose response (AID 1159571); assay type: functional, cell-based;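 note: parasites synchronized at ring stage by sorbitol before testing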
[12] = test system: HEK293; assay: cells; assay type: functional, cell-based; conditions: Homo sapiens
[13] = test system: HEK293; assay: inhibition of NOD1-driven NF-kB reporter – cell-based, luminescence, uHTS, primary screen (AID 1578); assay type: functional; conditions: Homo sapiens
[14] = test system: HEK293; assay: cells; assay type: functional, cell-based; conditions: Homo sapiens; remark: listed apart in the source
[15] = test system: HEK293; assay: NOD2 signaling inhibitors in MDP-stimulated cells, cell-based, uHTS, luminescence (AID 2001); assay type: functional; conditions: Homo sapiens
[16] = A549 cell cytotoxicity, dose response, cytotoxicity control, plate reader, cherry-pick, antagonist series (AID 743412); assay type: functional, cell-based
[17] = blockers of bursicon-stimulated LGR2 cAMP reporter – cell-based, HEK293, CRE-luciferase reporter, cherry pick, set 2, dose response (AID 743343); assay type: functional;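 note: transfected cells were stimulated with diluted bursicon conditioned medium after compound addition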
[18] = test system: Vero; assay: cells; assay type: functional; conditions: Chlorocebus sabaeus
[19] = target: Paired box protein Pax-8 (Homo sapiens, UniProt Q06710); assay: PAX8 transcriptional activity inhibition in RMG-I – RMG-I cells, luciferase, cherry-pick, dose response (AID 687027); assay type: functional, cell-based;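 note: luciferase reporter driven by Pax8 target thyroperoxidase promoter measured by SteadyGlo luminescence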
Chain of Paired box protein Pax-8 (Q06710 whole entry): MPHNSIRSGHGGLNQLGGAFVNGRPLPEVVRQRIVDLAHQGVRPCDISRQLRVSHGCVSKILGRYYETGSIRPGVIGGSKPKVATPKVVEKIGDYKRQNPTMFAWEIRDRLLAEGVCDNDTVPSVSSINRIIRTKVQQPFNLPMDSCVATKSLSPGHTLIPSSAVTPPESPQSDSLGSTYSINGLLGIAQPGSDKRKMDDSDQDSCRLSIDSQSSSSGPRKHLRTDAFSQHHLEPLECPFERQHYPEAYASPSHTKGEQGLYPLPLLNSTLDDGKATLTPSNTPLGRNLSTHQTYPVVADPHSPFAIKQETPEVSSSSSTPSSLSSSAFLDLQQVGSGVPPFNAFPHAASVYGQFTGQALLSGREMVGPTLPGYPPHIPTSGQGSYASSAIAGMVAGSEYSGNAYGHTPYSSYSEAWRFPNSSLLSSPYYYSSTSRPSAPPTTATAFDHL

[20] = viability loss in HEK293 cells – cell-based, plate reader, cherry-picked samples, cytotoxicity control, dose response (AID 743446); assay type: functional
[21] = blockade of melanocortin 4 receptor signaling – cell-based, plate reader, cherry pick, counter-screen for LGR2 antagonist project, dose response (AID 743444); assay type: functional;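 note: transfected HEK 293 cells stimulated with alpha-MSH peptide; potency of inhibitors of the alpha-MSH evoked signal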
[22] = target: T1, Caspase-6 (Homo sapiens, UniProt P55212); assay: inhibition of CASP6 peptide cleavage – biochemical, VEID-R110 fluorescence, cherry-pick, dose response (AID 720632)
T1 sequence (P55212 whole entry): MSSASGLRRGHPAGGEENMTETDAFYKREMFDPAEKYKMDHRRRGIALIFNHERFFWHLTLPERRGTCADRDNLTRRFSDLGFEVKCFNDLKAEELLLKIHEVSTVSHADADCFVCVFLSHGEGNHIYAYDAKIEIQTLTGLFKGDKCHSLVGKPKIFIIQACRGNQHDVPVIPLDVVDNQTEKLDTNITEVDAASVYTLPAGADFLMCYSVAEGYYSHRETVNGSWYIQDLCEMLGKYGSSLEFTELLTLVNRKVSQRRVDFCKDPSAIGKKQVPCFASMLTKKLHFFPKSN

[23] = toxicity toward HepG2 liver cells – cell-based, plate reader, cherry-pick, antagonist series, cytotoxicity control, dose response (AID 743416); assay type: functional
[24] = target: Eukaryotic translation initiation factor 4E (Mus musculus, UniProt P63073); assay: blockers of eIF4G binding by eIF4E – biochemical, TR-FRET, dose response (AID 855); assay type: functional;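 note: potency for disrupting eIF4E binding to eIF4GI seen as loss of FRET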
Chain of Eukaryotic translation initiation factor 4E (P63073 whole entry): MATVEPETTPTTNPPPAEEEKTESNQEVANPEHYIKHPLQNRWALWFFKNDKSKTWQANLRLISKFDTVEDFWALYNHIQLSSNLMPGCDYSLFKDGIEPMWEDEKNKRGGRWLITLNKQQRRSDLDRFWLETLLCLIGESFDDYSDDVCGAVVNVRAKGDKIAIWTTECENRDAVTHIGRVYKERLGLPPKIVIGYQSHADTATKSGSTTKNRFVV

[25] = target: FAD-linked sulfhydryl oxidase ALR (Homo sapiens, UniProt P55789); assay: ALR-catalysed DTT oxidation blockers – biochemical, H2O2 detection, luminescence, cherry-pick, dose response (AID 493248)
Chain of FAD-linked sulfhydryl oxidase ALR (P55789 whole entry): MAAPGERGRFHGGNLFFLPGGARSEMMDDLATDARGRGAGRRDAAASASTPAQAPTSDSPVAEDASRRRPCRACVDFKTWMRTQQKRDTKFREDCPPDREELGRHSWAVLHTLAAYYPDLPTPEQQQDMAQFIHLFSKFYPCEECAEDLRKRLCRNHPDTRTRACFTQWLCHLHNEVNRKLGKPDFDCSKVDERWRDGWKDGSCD

[26] = target: Cytochrome P450 3A4 (Homo sapiens, UniProt P08684);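 note: CYP3A4 tested as one member of a cytochrome P450 panel screen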
Chain of Cytochrome P450 3A4 (P08684 whole entry): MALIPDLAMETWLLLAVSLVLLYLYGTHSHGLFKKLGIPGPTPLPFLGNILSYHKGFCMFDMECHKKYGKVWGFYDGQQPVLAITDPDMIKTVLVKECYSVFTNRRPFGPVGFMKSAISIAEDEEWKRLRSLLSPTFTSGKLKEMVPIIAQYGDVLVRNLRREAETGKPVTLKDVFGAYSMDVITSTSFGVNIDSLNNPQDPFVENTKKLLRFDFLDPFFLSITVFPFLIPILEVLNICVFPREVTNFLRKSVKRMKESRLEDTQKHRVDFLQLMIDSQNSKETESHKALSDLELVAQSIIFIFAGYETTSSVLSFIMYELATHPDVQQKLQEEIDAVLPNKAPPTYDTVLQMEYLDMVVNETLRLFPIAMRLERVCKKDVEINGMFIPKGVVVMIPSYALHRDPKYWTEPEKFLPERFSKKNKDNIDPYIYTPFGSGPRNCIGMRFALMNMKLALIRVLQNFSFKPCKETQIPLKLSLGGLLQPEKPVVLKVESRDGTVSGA

[27] = target: Voltage-dependent T-type calcium channel subunit alpha-1H (Homo sapiens, UniProt O95180); assay type: functional;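 note: channel activity triggered by adding a high calcium stimulation buffer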
[28] = target: T2, Microphthalmia-associated transcription factor (Homo sapiens, UniProt O75030); assay: reducers of TRPM1 reporter luminescence, concentration series – cell-based, SK-MEL-5, cherry-picked, set 3, MITF inhibitor project, dose response (AID 493073); assay type: functional;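 note: SK-MEL-5 melanoma cells with luciferase driven by the MITF target TRPM1 promoter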
T2 sequence (O75030 whole entry): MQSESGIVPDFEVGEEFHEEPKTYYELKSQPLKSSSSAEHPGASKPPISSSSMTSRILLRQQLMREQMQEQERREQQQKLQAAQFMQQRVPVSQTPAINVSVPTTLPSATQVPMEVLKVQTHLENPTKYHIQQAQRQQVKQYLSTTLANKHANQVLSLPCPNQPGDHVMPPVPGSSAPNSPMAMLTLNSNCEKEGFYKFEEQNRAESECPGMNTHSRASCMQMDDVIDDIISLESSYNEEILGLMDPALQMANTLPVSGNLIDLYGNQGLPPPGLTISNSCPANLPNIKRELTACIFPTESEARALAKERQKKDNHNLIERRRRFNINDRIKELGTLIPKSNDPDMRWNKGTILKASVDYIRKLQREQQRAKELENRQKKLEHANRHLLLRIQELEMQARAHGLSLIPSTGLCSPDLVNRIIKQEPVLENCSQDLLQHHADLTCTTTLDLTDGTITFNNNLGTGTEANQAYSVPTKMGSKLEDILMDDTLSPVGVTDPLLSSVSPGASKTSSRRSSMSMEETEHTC

[29] = test system: INS1; assay: INS-1E survival protection against cytokine death – cell-based, luminescence, retest, dose response (AID 449756); assay type: functional; conditions: Rattus norvegicus;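 note: cell death triggered by IL-1 beta plus TNF-alpha plus IFN-gamma mixture; protective hits raise ATP signal compared with cytokine alone wells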
[30] = luciferase reporter signal suppression in cells – H4 neuroglioma cells, luminescence, dose response (AID 1990); assay type: functional, cell-based
[31] = alpha-synuclein stem-loop luciferase translation blockers – H4 neuroglioma cells, luminescence, confirmation (AID 1988); assay type: functional, cell-based
[32] = Luminescence Cell-Based Dose Response HTS to Identify Inhibitors of 5'UTR Stem-Loop Driven Prion Protein mRNA Translation in H4 Neuroglioblastoma Cells. [Related pubchem assays: 1827 (Project Summary), 1813 (Primary HTS)]; assay type: functional
[33] = test system: Vero; assay: cells; assay type: functional, cell-based; conditions: Chlorocebus sabaeus

COc1ccc(NS(=O)(=O)c2ccc(NC(=O)C(CCSC)NC(N)=O)cc2)cc1 (stereo unspecified)
AC50 [1]: 26.9 µM (active)
AC50 [2]: > 70 µM (inactive)

CCCCN1C(=O)NC2NC(=O)NC21 (stereo unspecified)
IC50 [3]: 0.905 µM (active)
IC50 [4]: > 100 µM (active)

COc1ccccc1OCCCCCc1c(C)n[nH]c1C
AC50 [5]: 1.58 µM (inconclusive)
AC50 [6]: 11.2 µM (inconclusive)
AC50 [7]: inconclusive

COc1ccc(NC(=O)N(C)C[C@@H]2Oc3cc(-c4ccc(C)cc4)ccc3S(=O)(=O)N([C@H](C)CO)C[C@@H]2C)cc1
AC50 [8]: 2.25 µM (active)
AC50 [9]: 3.13 µM (active)
AC50 [10]: 2.58 µM (active)
AC50 [11]: 3.25 µM (active)

CC(=O)NC(c1ccco1)c1ccc2cccnc2c1O (stereo unspecified)
IC50 [12]: > 20 µM (inactive)
EC50 [13]: > 20 µM (inactive)
IC50 [14]: > 20 µM (inactive)
IC50 [15]: > 20 µM (inactive)
IC50 [4]: 12.5 µM (active)

Cn1nnnc1Sc1ncnc2scc(-c3ccc4c(c3)OCO4)c12
AC50 [16]: 14.4 µM (active)
AC50 [17]: 0.695 µM (active)
CC50 [18]: 24 µM (active)
AC50 [19]: 0.747 µM (active)
AC50 [20]: 28.8 µM (active)
AC50 [21]: 1.34 µM (active)

COc1ccc(CCC(=O)Nc2ccc(S(=O)(=O)Nc3nccc(C)n3)cc2)cc1
AC50 [22]: 47.1 µM (active)

OC(c1ccccc1)(c1ccccc1)C1CCN(CCCOc2ccc(C(F)(F)F)cc2)CC1
AC50 [16]: 9.23 µM (active)
AC50 [17]: 18.8 µM (active)
AC50 [20]: 16.6 µM (active)
AC50 [21]: 11.6 µM (active)
AC50 [23]: 10.7 µM (active)

COc1ccc(N2CCN(C(=O)CCNC(=O)Cn3ccc4ccccc4c3=O)CC2)cc1
IC50 [24]: 50 µM (inactive)
AC50 [25]: 8.16 µM (active)

C=CCNC(=S)N/N=C/c1ccc(-c2cc(Cl)ccc2Cl)o1
AC50 [26]: 10 µM (inconclusive)
AC50 [5]: 3.16 µM (inconclusive)
AC50 [7]: inconclusive

Cc1ccc(CNC(=O)Cn2cccc2C(=O)c2ccccc2)cc1
EC50 [27]: 3.77 µM (active)

COc1ccccc1N(C(=O)c1snc(C(N)=O)c1N)C(C(=O)NCc1ccccc1)c1ccc(O)cc1 (stereo unspecified)
IC50 [3]: 50 µM (inactive)

COC(=O)c1scc(C#N)c1N/N=C(\C#N)S(=O)(=O)c1ccc(Cl)cc1
IC50 [12]: > 20 µM (inactive)
EC50 [13]: 6.08 µM (active)
IC50 [14]: > 20 µM (inactive)
IC50 [15]: 18.8 µM (inactive)

C/C(=N\NC(=O)C(c1ccccc1)c1ccccc1)c1ccccn1
AC50 [28]: 5.96 µM (active)
AC50 [29]: 1.3 µM (active)

COc1ccc(C(=O)Nc2ccc(C)cn2)c(OC)c1
EC50 [30]: 1.15 µM (active)
AC50 [28]: 3.7 µM (active)
EC50 [31]: 0.307 µM (active)
EC50 [32]: 28.2 µM (active)

O=C1C2CCCN2C(c2ccc(F)cc2)N1c1ccc(Cl)cc1 (stereo unspecified)
IC50 [33]: > 25 µM (active)
